# Key:
# [1] = test system: balb/c mice with DNCB-induced atopic dermatitis; experiment: DNCB-induced atopic dermatitis model; assay type: in vivo; details: DNCB-applied balb/c mice, concentration of 0.011 μM (so in the source)
# [2] = test system: balb/c mice with DNCB-induced atopic dermatitis; experiment: DNCB-induced atopic dermatitis model; assay type: in vivo; details: for epidermal thickness: DNCB group 87.1±13.0, normal 24.5±10.3; for number of mast cells in skin tissue: applied 3 weeks; for blood IgE level: DNCB group 790.0±151.8
# Text: (5) Reverse transcription-polymerase chain reaction (RT-PCR) quantitative real time PCR: Total RNA was isolated from cells and tissues, and cDNA was synthesized using a reverse transcriptase and was then reacted with cytokine primers to be analyzed, followed by PCR and real-time PCR. The RT-PCR products were subjected to electrophoresis using 1.5% agarose gel for analysis.
# A. Experimental animal: 5-week-old male BALB/c mice obtained from. Daehan Biolink (Eumseong, Chungbuk) were adapted for 2 weeks in a clean animal breeding room (small animal room #2-302) at Hoseo University Safety Evaluation Center, set under environmental conditions: temperature of 22±3° C.; relative humidity of 50±20%; ventilation frequency of 10 to 15 times/hour, illumination for 12 hours; and illuminance of 150 Lux to 300 Lux, and then used in an experiment.
# 4 experimental animals were accommodated in each of polycarbonate cages (270×500×200 mm, KYERYONG SCIENCE). Feed (5053-Picolab Rodent 20, PMI Nutrition International) and drinking water (ultraviolet sterilized filtered water) were allowed to ingest freely. All procedures of the experiment were conducted after approved by the Ethics Committee of the Hoseo University Safety Evaluation Center (HTRC-15-19).
# B. Dermatitis induction: Hairs on the back of each mouse were removed and maintained for 24 hours, and then 150 μl of a 1% 2,4-dinitrochlorobenzene(DNCB) solution (acetone: olive oil=3:1) was applied on the hair-removed site once a week for 3 weeks. After week 3, the DNCB solution was applied on the site twice a week for 3 weeks to induce atopic dermatitis.
# C. Treatment: Mice were divided into 6 groups, and 0.5% DMSO was applied on animals as a control and 200 μl of each of 0.01 μM, 0.1 μM, and 1 μM test material was applied on animals as experimental groups for 3 weeks. 50 μl of 0.1% dexamethasone dissolved in a crude alcohol was applied on animals as a positive control at intervals of 2 days.
# D. Biopsy: After application of the test material was completed, the dorsal skin of each experimental animal was incised under heart anesthesia, some of them were rapidly frozen using liquid nitrogen and stored at −70° C. before analysis, and the remainder was fixed with 10% neutral buffered formalin for 24 hours. The fixed tissues were prepared into slides through general tissue processing, and then subjected to hematoxylin & eosin (H&E) staining to measure the thickness of the epidermal layer. In addition, toluidine blue staining was performed to observe a quantitative change of mast cells. While the stained tissues were observed by an optical microscope, the thickness of the epidermal layer and the number of mast cells were obtained using an image analyzer (Olympus DP-21).
# E. IgE level measurement: IgE concentration in blood was measured by (SHIBAYAGI, Japan) using serum collected when autopsy was performed. 50 μL of an IgE standard solution and the sample were placed in antibody-attached 96 wells and allowed to react for 2 hours, and then 50 μL of a biotin-conjugated anti-IgE antibody solution was added to each well and allowed to react for 2 hours. Thereafter, the resulting sample was reacted with a HRP-avidin solution for 1 hour and a chromogenic substrate (TBM) reagent for 20 minutes, and the reaction was stopped using a reaction stopper. Absorbance of the sample was measured at 450 nm using ELISA (Molecular devices Emax).
# [3] = test system: TSLP secretion from human mast cells (HMC-1 cells); experiment: TSLP secretion ELISA in PMACI-stimulated mast cells; assay type: cell-based
# Procedure: (1) Cell culture: A human mast cell line (HMC-1) was cultured in an IMDM supplemented with 10% FBS at 37° C. and 5% CO2. Candidate materials were dissolved in DMSO, and then filtered using a 0.22 μm filter. The resulting candidate materials were diluted with DMSO and the HMC-1 cells were treated therewith.
# (3) Enzyme-linked immunosorbent assay (ELISA): Mast cells (3×10^6 cells/ml) were stabilized for 1 hour, and then treated with 0.1 μM, 1 μM, and 10 μM of candidate materials, followed by treatment with PMACI for 8 hours. The mast cells were centrifuged to obtain supernatants. To measure the amount of TSLP secreted from the cells, ELISA was used. The ELISA was performed in 96-well plates coated with 1 μg/well of TSLP capture Ab. The coated plates were washed twice with PBS. The cells were treated with PBS containing 10% FBS for 2 hours. Thereafter, the cells were washed with PBS containing 0.05% Tween-20 (Sigma), and recombinant TSLP was used to draw a standard curve. Subsequently, the plates were exposed to a biotinylated-TSLP antibody, Avidin peroxidase, an ARTS substrate containing 30% H2O2, and then measured at 405 nm.
# [4] = DNCB-applied balb/c mice skin tissue, RT-PCR
# [5] = DNCB-applied balb/c mice, concentration of 0.011 μM (so in the source)
compound,measurement,setting,value
Cl.N=C(N)NC(=N)Nc1ccc(Cl)cc1 [IPS-07001],IL-6 level in dorsal skin,[1],significantly regulated
same,visual changes of skin symptoms,"[2]; 0.01 μM, topical, 3 weeks",No significant visual changes
same,epidermal thickness,[2]; 0.01 μM,70.8±4.3 μm
same,number of mast cells in skin tissue,"[2]; 0.1 μM, p<0.01",25.8±3.5
same,visual changes of skin symptoms,"[2]; 0.1 μM, topical, 3 weeks",No significant visual changes
same,epidermal thickness,[2]; 0.1 μM,74.4±7.1 μm
same,blood IgE level,"[2]; 0.1 μM, p<0.05",632.6±138.8
same,number of mast cells in skin tissue,"[2]; 1 μM, p<0.01",23.8±5.1
same,"erythema, excoriation, and lichenification (visual observation)","[2]; 1 μM, topical, 3 weeks, compared to DNCB group",reduced
same,epidermal thickness,[2]; 1 μM,60.0±8.2 μm
same,blood IgE level,"[2]; 1 μM, p<0.01",537.9±132.9
same,IL-6 mRNA expression in atopic skin lesions,[2]; [4],regulated
same,TARC mRNA expression in atopic skin lesions,[2]; [4],regulated
same,TNF-a mRNA expression in atopic skin lesions,[2]; [4],regulated
same,IL-4 level in dorsal skin,[2]; [5],significantly regulated
same,serum IL-4 level,[2]; [5],significantly regulated
same,serum IgE level,[2]; [5],significantly regulated
same,serum histamine level,[2]; [5],significantly regulated
same,TSLP production,"[3]; HMC-1 cells, concentration of 0.011 μM (so in the source), non-cytotoxic",significantly regulated
same,TSLP secretion from mast cells,"[3]; PMACI-stimulated HMC-1 cells, ELISA",significantly inhibited
